Source: ChEMBL document CHEMBL5126502, “Promising applications of steroid сonjugates for cancer research and treatment” (Eur J Med Chem, 2021)

Assay: Cytotoxicity against human MCF7 cells incubated for 48 hrs by MTT assay
Type: toxicity, cell-based

C[C@@H]1CC[C@@]2(OC1)O[C@H]1C[C@H]3[C@@H]4CC[C@H]5C[C@@H](OC(=O)[C@@H](N)CO)CC[C@]5(C)[C@H]4CC[C@]3(C)[C@H]1[C@@H]2C
IC50 at 48 h: 1500 nM
